From patent US20220313595A1, “Oral Care Compositions Comprising Hops” (The Procter & Gamble Company, priority 2021, published 2022)

System: plaque biofilm grown from fresh pooled human saliva
Experiment: in vitro plaque glycolysis model (iPGRM): acid production and acid inhibition
Assay type: cell-based, plaque microorganisms from human saliva
Conditions: TABLE 2, 3-day biofilm
Protocol: Acid production and acid inhibition were determined with the in vitro plaque glycolysis model (iPGRM). The purpose of this technique is to provide a simple and quick method for determining if compounds have an influence on the metabolic pathways that plaque microorganisms utilize to produce toxins that adversely affect gingival health. It is also useful to determine if compounds have an influence on the metabolic pathways that plaque microorganisms utilize to produce plaque acids that adversely affect teeth.
The in vitro plaque glycolysis model (iPGRM) is a technique in which plaque is grown from human saliva and treated with various agents to determine anti-glycolytic activity of treatments. When bacteria convert sugar into energy with the help of enzymes, acids are formed. These acids demineralize and damage the dental enamel. […]
[…] The pH of the media solutions was then measured to determine the amount of glycolysis inhibition relative to a negative control.
On Day 1, new glass rods (5 mm×90 mm) were polished approximately 25 mm from the un-tapered end on a lathe with silicon carbide paper of 240, 320, 400, and 600 grit used sequentially. […] After polishing, rods were stored until ready to run test. […]

[H]/N=C(\N/C(=N/[H])NCCCCCCNC(=N)NC(=N)Nc1ccc(Cl)cc1)Nc1ccc(Cl)cc1 [1% Chlorhexidine, Chlorhexidine]
Acid Production (ΔpH) Mean (2 min treatment with dentifrice slurry or diluted treatment in water (1:5), ΔpH vs blank vials): 0.30 ΔpH
Mean Acid Inhibition (%) Mean (relative to negative control Crest Cavity Protection): 80.77%
